Assay results: patent US20120220624A1, “PYRAZOLO [3,4-B] PYRIDIN-4-ONE KINASE INHIBITORS” (priority 2009, published 2012)
Like-named read-outs stand apart in the source and are kept apart here. Blank lines part the entries; values can stand above or below the compound they belong to.

Target: T1, CDK5-p25 kinase (Homo sapiens, UniProt Q00535)
T1 construct: purchased Invitrogen PV4677
Assay: CDK5-p25 kinase enzymatic assay
Assay type: biochemical
Conditions: 0.3 nM CDK5-p25, 1.5 uM peptide, 5 uM ATP
Description: CDK5-p25 kinase (Invitrogen PV4677) enzymatic activity was measured using electrophoretic separation and fluorescent detection to monitor phosphorylation of a fluorescently labeled histone H1-derived peptide substrate, FL29 (5-FAM-GGGPATPKKAKKL-CONH2, Caliper #760429)
First, 0.25 uL of serially diluted compound in DMSO at 100× concentration was transferred into each well of a 384-well polystyrene assay plate. To this was added 15 uL of a 1.67× enzyme solution (500 pM enzyme, 1 mM DTT (Sigma D9779), 1× reconstitution buffer with protease inhibitor (Caliper #700329 proprietary formulation)), followed by centrifugation for 1 min at 1000 rpm, and incubation for 5-15 min at room temperature to allow binding of compound to enzyme. To initiate the reaction, 10 uL of substrate/ATP mix (245 mM Hepes pH 7.5, 0.003% Brij 35, 0.004% Tween, 12.75 uM ATP, 3.75 uM FL29 peptide) were added to each well, followed by centrifugation at 1000 rpm for 1 min. The reaction was then incubated at room temperature for 30 min. Final assay conditions were: 0.3 nM CDK5-p25, 1.5 uM peptide, 5 uM ATP, 0.6 mM DTT, 1% DMSO, 98 mM HEPES pH 7.5.
After incubation, reactions were quenched by the addition of 45 uL Caliper termination solution (Caliper proprietary formula), followed by centrifugation at 1000 rpm for 1 min. Extent of reaction (percentage conversion of substrate to phosphorylated product) was then measured using the Caliper EZ II reader. Dose-response curves were created by plotting the inhibition of enzyme activity (normalized relative to vehicle treated and no ATP control reactions) as a function of the log of compound concentration. The curve was analyzed using a four parameter logistical fit to calculate IC50 values.

[1] = X marks bin <50 nM, read-out: IC50 potency, <50 nM
[2] = X marks bin 500 nM-3 μM, read-out: IC50 potency, 500 nM-3 μM
[3] = X marks bin 50 nM-99 nM, read-out: IC50 potency, 50 nM-99 nM
[4] = X marks bin 100 nM-499 nM, read-out: IC50 potency, 100 nM-499 nM

T1 sequence (Q00535 whole entry): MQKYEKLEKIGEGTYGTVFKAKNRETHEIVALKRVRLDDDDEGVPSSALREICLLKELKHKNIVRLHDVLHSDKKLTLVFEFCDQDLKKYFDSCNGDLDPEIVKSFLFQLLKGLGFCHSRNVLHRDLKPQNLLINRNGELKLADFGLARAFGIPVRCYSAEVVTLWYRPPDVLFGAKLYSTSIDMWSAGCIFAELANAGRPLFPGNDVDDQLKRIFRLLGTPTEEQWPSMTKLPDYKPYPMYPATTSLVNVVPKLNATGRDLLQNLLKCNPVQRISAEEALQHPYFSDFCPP
T1 sequence (Q15078 99-307 partner limits assumed): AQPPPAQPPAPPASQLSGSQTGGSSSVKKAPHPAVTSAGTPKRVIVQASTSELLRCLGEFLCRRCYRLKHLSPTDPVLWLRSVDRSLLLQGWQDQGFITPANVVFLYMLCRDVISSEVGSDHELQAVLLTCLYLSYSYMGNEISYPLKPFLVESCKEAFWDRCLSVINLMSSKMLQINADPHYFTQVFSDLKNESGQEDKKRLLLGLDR

IC50 [1]: < 50 nM
Structure (SMILES): O=C1CC(c2[nH]nc3[nH]c(Cc4ccc5ccccc5c4)cc(=O)c23)C1 [Example 12, 6-(naphthalen-2-ylmethyl)-3-(3-oxocyclobutyl)-2,7-dihydro-4H-pyrazolo[3,4-b]pyridin-4-one]

IC50 [2]: 500 to 3000 nM
Structure (SMILES): O=c1cc(Cc2ccc3ccccc3c2)[nH]c2n[nH]c([C@H]3C[C@@H](O)C3)c12 [Example 11, 3-(cis-3-hydroxycyclobutyl)-6-(naphthalen-2-ylmethyl)-2,7-dihydro-4H-pyrazolo[3,4-b]pyridin-4-one]

IC50 [1]: < 50 nM
Structure (SMILES): O=c1cc(Cc2ccc3ccccc3c2)[nH]c2n[nH]c([C@H]3C[C@H](O)C3)c12 [Example 10, 3-(trans-3-hydroxycyclobutyl)-6-(naphthalen-2-ylmethyl)-2,7-dihydro-4H-pyrazolo[3,4-b]pyridin-4-one]

IC50 [1]: < 50 nM
Structure (SMILES): O=c1cc(Cc2ccc(Cl)c(Cl)c2)[nH]c2n[nH]c(C3CCC3)c12 [Example 6, 3-cyclobutyl-6-(3,4-dichlorobenzyl)-2,7-dihydro-4H-pyrazolo[3,4-b]pyridin-4-one]

IC50 [3]: 50 to 99 nM
Structure (SMILES): O=c1cc(Cc2ccc(-c3ccccc3)cc2)[nH]c2n[nH]c(C3CCC3)c12 [Example 3, 6-(biphenyl-4-ylmethyl)-3-cyclobutyl-2,7-dihydro-4H-pyrazolo[3,4-b]pyridin-4-one]

IC50 [2]: 500 to 3000 nM
Structure (SMILES): O=c1cc(Cc2ccc3ccccc3c2)[nH]c2n[nH]c(C3CC(F)(F)C3)c12 [Example 9, 3-(3,3-difluorocyclobutyl)-6-(naphthalen-2-ylmethyl)-2,7-dihydro-4H-pyrazolo[3,4-b]pyridin-4-one]

IC50 [4]: 100 to 499 nM
Structure (SMILES): O=c1cc(Cc2c(F)cccc2Cl)[nH]c2n[nH]c(C3CCC3)c12 [Example 2, 6-(2-chloro-6-fluorobenzyl)-3-cyclobutyl-2,7-dihydro-4H-pyrazolo[3,4-b]pyridin-4-one]

IC50 [4]: 100 to 499 nM
Structure (SMILES): O=c1cc(CC2CCCCC2)[nH]c2n[nH]c(C3CCC3)c12 [Example 7, 3-cyclobutyl-6-(cyclohexylmethyl)-2,7-dihydro-4H-pyrazolo[3,4-b]pyridin-4-one]

IC50 [4]: 100 to 499 nM
Structure (SMILES): O=c1cc(Cc2ccccc2-c2ccccc2)[nH]c2n[nH]c(C3CCC3)c12 [Example 5, 6-(biphenyl-2-ylmethyl)-3-cyclobutyl-2,7-dihydro-4H-pyrazolo[3,4-b]pyridin-4-one]

IC50 [3]: 50 to 99 nM
Structure (SMILES): CC(C)(C)c1ccc(Cc2cc(=O)c3c(C4CCC4)[nH]nc3[nH]2)cc1 [Example 4, 6-(4-tert-butylbenzyl)-3-cyclobutyl-2,7-dihydro-4H-pyrazolo[3,4-b]pyridin-4-one]

IC50 [1]: < 50 nM
Structure (SMILES): O=c1cc(Cc2cc(F)cc(Cl)c2)[nH]c2n[nH]c(C3CCC3)c12 [Example 8, 6-(3-chloro-5-fluorobenzyl)-3-cyclobutyl-2,7-dihydro-4H-pyrazolo[3,4-b]pyridin-4-one]

IC50 [1]: < 50 nM
Structure (SMILES): O=c1cc(Cc2ccc3ccccc3c2)[nH]c2n[nH]c(C3CCC3)c12 [Example 1, 3-cyclobutyl-6-(2-naphthylmethyl)-2,7-dihydro-4H-pyrazolo[3,4-b]pyridin-4-one]
